Columns and labels:
windgrass = test: Test C postemergence; type: in vivo, Apera spica-venti; conditions: 62 g ai/ha, scale 0 to 100
cupgrass, woolly = test: Test C preemergence; type: in vivo, Eriochloa villosa; conditions: for Plant response rating (scale of 0 to 100), Cupgrass, Woolly: Preemergence, 250 g ai/ha; for Cupgrass, Woolly plant response rating / Plant response rating, Cupgrass, Woolly: preemergence; for Plant response rating, Cupgrass, Woolly: 62 g ai/ha, scale 0 to 100, 0 = no effect, 100 = complete control
From the text: (§1) Seeds of plant species selected from blackgrass (Alopecurus myosuroides), ryegrass, Italian (Italian ryegrass, Lolium multiflorum), wheat (winter wheat, Triticum aestivum), galium (catchweed bedstraw, Galium aparine), corn (Zea mays), crabgrass, large (large crabgrass, Digitaria sanguinalis), foxtail, giant (giant foxtail, Setaria faberii), johnsongrass (Sorghum halepense), lambsquarters (Chenopodium album), morningglory (Ipomoea coccinea), nutsedge, yellow (yellow nutsedge, Cyperus esculentus), pigweed (redroot pigweed, Amaranthus retroflexus), ragweed (common ragweed, Ambrosia elation), soybean (Glycine max), barnyardgrass (Echinochloa crus-galli), oilseed rape (Brassica napus), waterhemp (common waterhemp, Amaranthus rudis), oat, wild (wild oat, Avena fatua), kochia (Kochia scoparia), Surinam grass (Brachiaria decumbens), foxtail, green (green foxtail, Setaria viridis), goosegrass (Eleusine indica), bromegrass, downy (downy bromegrass, Bromus tectorum), nightshade (eastern black nightshade, Solanum ptycanthum), cocklebur (common cocklebur, Xanthium strumarium), cupgrass, woolly (woolly cupgrass, Eriochloa villosa), bermudagrass (Cynodon dactylon), sunflower, (common oilseed sunflower, Helianthus annuus), Russian thistle (Salsola kali), and velvetleaf (Abutilon theophrasti) were planted into a blend of loam soil and sand and treated preemergence with test chemicals formulated in a non-phytotoxic solvent mixture which included a surfactant.
(§2) At the same time, plants selected from these crop and weed species and also chickweed (common chickweed, Stellaria media), canarygrass (littleseed canarygrass, Phalaris minor), and deadnettle (henbit deadnettle, Lamium amplexicaule), were planted in pots containing Redi-Earth® planting medium (Scotts Company, 14111 Scottslawn Road, Marysville, Ohio 43041) comprising spaghnum peat moss, vermiculite, wetting agent and starter nutrients and treated with postemergence applications of test chemicals formulated in the same manner. Plants ranged in height from 2 to 18 cm (1- to 4-leaf stage) for postemergence treatments. Treated plants and controls were maintained in a greenhouse for 13 to 15 days, after which time all species were compared to controls and visually evaluated. Plant response ratings, summarized in Table C, are based on a scale of 0 to 100 where 0 is no effect and 100 is complete control. A dash (-) response means no test result.

kochia = test: Test C preemergence; type: in vivo, Kochia scoparia; conditions: for Plant response rating (scale of 0 to 100), Kochia: Preemergence, 250 g ai/ha; for Kochia plant response rating / Plant response rating, Kochia: preemergence; for Plant response rating, Kochia: 62 g ai/ha, scale 0 to 100, 0 = no effect, 100 = complete control
From the text: as §1, §2

corn = test: Test F preemergence; type: in vivo, Zea mays
From the text: (§3) Seeds of plant species selected from corn (Zea mays), soybean (Glycine max), velvetleaf (Abutilon theophrasti), lambsquarters (Chenopodium album), wild poinsettia (Euphorbia heterophylla), pigweed, palmer (palmer pigweed, Amaranthus palmeri), common waterhemp (Amaranthus rudis), surinam grass (Brachiaria decumbens), large crabgrass (Digitaria sanguinalis), crabgrass, Brazil (Brazilian crabgrass, Digitaria horizontalis), fall panicum (Panicum dichotomiflorum), giant foxtail (Setaria faberii), green foxtail (Setaria viridis), goosegrass (Eleusine indica), johnsongrass (Sorghum halepense), common ragweed (Ambrosia elation), barnyardgrass (Echinochloa crus-galli), southern sandbur (Cenchrus echinatus), arrowleaf sida (Sida rhombifolia), Italian ryegrass (Lolium multiflorum), dayflower, VA (Virginia (VA) dayflower, Commelina virginica), field bindweed (Convolvulus arvensis), cocklebur (common cocklebur, Xanthium strumarium), morningglory (Ipomoea coccinea), nightshade (eastern black nightshade, Solanum ptycanthum), kochia (Kochia scoparia), yellow nutsedge (Cyperus esculentus), and hairy beggarticks (Bidens pilosa), were planted into a silt loam soil and treated preemergence with test chemicals formulated in a non-phytotoxic solvent mixture which included a surfactant.
(§4) At the same time, plants from these crop and weed species and also horseweed (Canada horseweed, Conyza canadensis), smartweed (ladysthumb smartweed, Polygonum persicaria), waterhemp_RES1, (ALS & Triazine resistant common waterhemp, Amaranthus rudis), and waterhemp_RES2, (ALS & HPPD resistant common waterhemp, Amaranthus rudis) were treated with postemergence applications of test chemicals formulated in the same manner. Plants ranged in height from 2 to 18 cm for postemergence treatments (1- to 4-leaf stage). Treated plants and controls were maintained in a greenhouse for 14 to 21 days, after which time all species were compared to controls and visually evaluated. Plant response ratings, summarized in Table F, are based on a scale of 0 to 100 where 0 is no effect and 100 is complete control. A dash (-) response means no test result.

Italian ryegrass = test: Test F preemergence; type: in vivo, Lolium multiflorum
From the text: as §3, §4

large crabgrass = test: Test F preemergence; type: in vivo, Digitaria sanguinalis
From the text: as §3, §4

nightshade = test: Test F preemergence; type: in vivo, Solanum ptycanthum
From the text: as §3, §4

[1] = 31 g ai/ha, scale 0 to 100 (0 no effect, 100 complete control), 13 to 15 days
[2] = 125 g ai/ha, scale 0 to 100, 0 is no effect, 100 is complete control
[3] = Preemergence, 31 g ai/ha, scale 0 to 100
[4] = Preemergence, 62 g ai/ha, scale 0 to 100
[5] = Preemergence, 125 g ai/ha, scale 0 to 100
[6] = preemergence, 8 g ai/ha, scale 0 to 100, 100 is complete control
[7] = preemergence, 16 g ai/ha, scale 0 to 100, 100 is complete control
[8] = Preemergence, 250 g ai/ha, scale 0 to 100

| SMILES | Windgrass plant response rating (windgrass) | Plant response rating (scale of 0 to 100), Cupgrass, Woolly (cupgrass, woolly) | Cupgrass, Woolly plant response rating (cupgrass, woolly; [1]) | Cupgrass, Woolly plant response rating (cupgrass, woolly; [2]) | Plant response rating (scale of 0 to 100), Kochia (kochia) | Kochia plant response rating (kochia; [1]) | Plant response rating, Kochia (kochia; 13 to 15 days) | Kochia plant response rating (kochia; [2]) | Plant response rating, Corn (corn; [4]) | Plant response rating, Corn (corn; [5]) | Plant response rating, Italian Ryegrass (Italian ryegrass; [4]) | Plant response rating, Italian Ryegrass (Italian ryegrass; [5]) | Plant response rating, Large Crabgrass (large crabgrass; [4]) | Plant response rating, Large Crabgrass (large crabgrass; [5]) | Plant response rating, Nightshade (nightshade; [5]) | also measured |
| --- | --- | --- | --- | --- | --- | --- | --- | --- | --- | --- | --- | --- | --- | --- | --- | --- |
| CCc1cc(C(=O)NCC(F)(F)F)nn1Cc1cccc(OC(F)(F)F)c1 [Compound 20] | 10 | – | – | – | – | – | – | – | – | – | – | – | – | – | – | – |
| CCCNC(=O)c1cc(CC)n(Cc2cccc(OC(F)(F)F)c2)n1 [Compound 27] | 20 | – | – | – | – | – | – | – | – | – | – | – | – | – | – | – |
| CCc1cc(C(=O)NOC(C)C)nn1Cc1cccc(OC(F)(F)F)c1 [Compound 70] | 25 | 90 | 40 | 85 | 98 | 40 | 65 | 98 | – | – | – | – | – | – | – | Plant response rating, Cupgrass, Woolly (cupgrass, woolly; 13 to 15 days): 65 |
| CCONC(=O)c1cc(CC)n(Cc2cccc(OC(F)(F)F)c2)n1 [Compound 72] | 20 | 65 | 10 | 45 | 80 | 5 | 45 | 50 | – | – | – | – | – | – | – | Plant response rating, Cupgrass, Woolly (cupgrass, woolly; 13 to 15 days): 45 |
| Cc1cc(C(=O)NCC(F)(F)F)nn1Cc1ccnc(C(F)(F)F)c1 [Compound 74] | 0 | 98 | 65 | 98 | 98 | 98 | 98 | 98 | – | – | – | – | – | – | – | – |
| CCc1cc(-c2ccc(C(F)(F)F)cc2)nn1Cc1ccnc(C(F)(F)F)c1 [Compound 110] | – | – | – | – | – | – | – | – | 0 | 15 | 20 | 60 | 75 | 85 | 95 | Plant response rating, Corn (corn; [3]): 0; Plant response rating, Corn (corn; [6]): 0; Plant response rating, Corn (corn; [7]): 0; Plant response rating, Italian Ryegrass (Italian ryegrass; [3]): 20; Plant response rating, Italian Ryegrass (Italian ryegrass; [6]): 0; Plant response rating, Italian Ryegrass (Italian ryegrass; [7]): 0; Plant response rating, Large Crabgrass (large crabgrass; [3]): 10; Plant response rating, Large Crabgrass (large crabgrass; [6]): 5; Plant response rating, Large Crabgrass (large crabgrass; [7]): 5; Plant response rating, Nightshade (nightshade; [3]): 80; Plant response rating, Nightshade (nightshade; [4]): 85; Plant response rating, Nightshade (nightshade; [6]): 50; Plant response rating, Nightshade (nightshade; [7]): 65 |
| CCCc1cc(C(=O)NC(C)C)nn1Cc1cc(C(F)(F)F)nn1C [Compound 201] | – | – | – | – | – | – | – | – | 10 | 20 | 30 | 75 | 70 | 100 | 95 | Plant response rating, Corn (corn; [8]): 60; Plant response rating, Corn (corn; [7]): 0; Plant response rating, Italian Ryegrass (Italian ryegrass; [8]): 75; Plant response rating, Italian Ryegrass (Italian ryegrass; [7]): 0; Plant response rating, Large Crabgrass (large crabgrass; [8]): 100; Plant response rating, Large Crabgrass (large crabgrass; [7]): 0; Plant response rating, Large Crabgrass (large crabgrass; preemergence, scale 0 to 100, 100 is complete control): 35; Plant response rating, Nightshade (nightshade; Preemergence, 16 g ai/ha, scale 0 to 100): 10; Plant response rating, Nightshade (nightshade; [4]): 80; Plant response rating, Nightshade (nightshade; [8]): 98; Plant response rating, Nightshade (nightshade; [7]): 0 |
| CCc1cc(C(=O)NCC(F)(F)F)nn1Cc1ccnc(Br)c1 [Compound 224] | – | – | – | – | – | – | – | – | 0 | 20 | 20 | 0 | 98 | 100 | 0 | Plant response rating, Corn (corn; [8]): 40; Plant response rating, Italian Ryegrass (Italian ryegrass; [8]): 60; Plant response rating, Large Crabgrass (large crabgrass; [8]): 100; Plant response rating, Nightshade (nightshade; [8]): 95 |
